{"source": "patent US20230310356A1", "about": "“COMPOSITION FOR PREVENTING, AMELIORATING, OR TREATING BRAIN DAMAGE AND MILD COGNITIVE IMPAIRMENT COMPRISING GLUTAMINE AS EFFECTIVE COMPONENT” (INDUSTRY-ACADEMIC COOPERATION FOUNDATION GYEONGSANG …, priority 2020, published 2023)", "key": {"[1]": {"system": "stratum pyramidale CA1 in hippocampus", "assay": "Morphological change in hippocampus (Nissl staining, width of stratum pyramidale CA1) after CIS and glutamine supplementation", "assay_type": "in vivo, mouse", "details": "STR+Gln vs STR; glutamine 150 mg/kg of feed", "experimental": "Control (CTL) is a group which received normal diet (common diet with nutritional balance) without any stress, CTL+Gln group is a normal diet group supplemented with glutamine (150 mg/kg of feed) and without any stress, STR is a normal diet group under stress, and STR+Gln group is a normal diet group supplemented with glutamine (150 mg/kg of feed) under stress. The stress group (STR) was individually brought by force to a restrainer for 2 hours every day (i.e., between 2 PM and 4 PM) so that the animals are applied with chronic immobilization stress for 15 days. Any morphological change in hippocampus caused by the application of chronic immobilization stress and glutamine supplementation was determined by brain tissue staining of hippocampal region. Specifically, a section (i.e., brain tissue specimen) obtained after mounting for 5 minutes in 0.1% cresyl violet which has been dissolved in 0.2% acetic acid followed by air-drying was stained. Stained section was washed, subsequently immersed for 30 seconds in 80% (v/v) ethanol, again immersed for 30 seconds in 90% (v/v) ethanol, and again immersed twice for 30 seconds in 95% (v/v) ethanol. It was again immersed twice for 30 seconds in 100% (v/v) ethanol for dehydration. […]"}, "[2]": {"system": "C57BL/6 female mouse (NonTg)", "assay": "ORT cognitive ability test in normal control mouse with glutamine diet", "assay_type": "in vivo", "details": "until the 6-months old stage, 150 mg glutamine/kg diet", "experimental": "As an animal model for cognitive ability evaluation, a 7-weeks old 3×TG-AD female mouse (8 mice. model of Alzheimer's disease) and a C57BL/6 female mouse (10 mice, control) were selected. The animals of each type were divided into 2 groups, and each group was provided with regular animal feed (i.e., normal diet, ND) or glutamine feed (Gln). The glutamine diet group was allowed to consume the feed containing 150 mg glutamine/kg diet, from 2-months old stage to the end of test (i.e., 6 to 7-months old stage). Health state of the animal was checked by measuring, once a week, the bodyweight of the animal and food intake (FIG. 7A). Cognitive ability test of the mouse as an animal model established above was determined by ORT (object recognition test). The animal was habituated in a box for 2 days. On Day 3, it was allowed to explore two identical objects for 10 minutes. On Day 4, one of the two objects was replaced with a novel object, and then, the animal was allowed to explore further for 5 minutes (FIG. 7B). The time spent by animal for exploring after approaching within 1 cm from the periphery of both objects was measured. After carrying out the calculation using Formula (3) below, DI (discrimination index) was calculated and compared to each other. In the present invention, a different novel object was employed for carrying out each test. […]"}, "p67phox": {"system": "p67phox", "assay": "Double-IHC protein expression after CIS and glutamine supplementation: p67phox", "assay_type": "in vivo, mouse", "details": "microglial cells in infralimbic cortex and hippocampal CA1 region; glutamine supplementation diet vs stress group", "experimental": "Control (CTL) is a group which received normal diet (common diet with nutritional balance) without any stress, CTL+Gln group is a normal diet group supplemented with glutamine (150 mg/kg of feed) and without any stress, STR is a normal diet group under stress, and STR+Gln group is a normal diet group supplemented with glutamine (150 mg/kg of feed) under stress. The stress group (STR) was individually brought by force to a restrainer for 2 hours every day (i.e., between 2 PM and 4 PM) so that the animals are applied with chronic immobilization stress for 15 days. To determine the specific changes in the brain tissues after glutamine supplementation, double staining was carried out with a cell marker so that the proteins related to a change in ROS/RNS content (i.e., iNOS; nNOS; and p47phox and p67phox as a subunit of NOX) with cell markers are analyzed by double-IHC (immunohistochemistry). Twenty-four hours after applying the last stress, the mouse was anesthetized with avertin, and perfused with PBS (pH 7.4) and 4% formaldehyde. After that, the brain was removed, fixed, and cut to a thickness with 40 μm. […]"}, "amyloid beta 42 (Aβ42)": {"system": "amyloid beta 42 (Aβ42)", "assay": "Aβ42 in neuronally derived blood exosome (NDE) by ELISA after glutamine diet", "assay_type": "in vivo, mouse", "details": "female 3×TG-AD, 3×TG+Gln vs 3×TG, after test with 6-months old animals", "experimental": "As an animal model for cognitive ability evaluation, a 7-weeks old 3×TG-AD female mouse (8 mice. model of Alzheimer's disease) and a C57BL/6 female mouse (10 mice, control) were selected. The animals of each type were divided into 2 groups, and each group was provided with regular animal feed (i.e., normal diet, ND) or glutamine feed (Gln). The glutamine diet group was allowed to consume the feed containing 150 mg glutamine/kg diet, from 2-months old stage to the end of test (i.e., 6 to 7-months old stage). Health state of the animal was checked by measuring, once a week, the bodyweight of the animal and food intake (FIG. 7A). After the cognitive ability test with 6-months old animals, the mouse was sacrificed using carbon dioxide and a change in neuronally derived blood exosome (NDE) protein was determined. Total exosomes were separated from serum, and, after a reaction for 1 hour with anti-CD171 antibody, they were reacted for 1 hour with streptavidin-fused magnetic beads. After that, elution was carried out using 0.05 M glycine-HCl (pH 3.0), and then addition of 1 M Tris-HCl (pH 8.0) was made. Analysis was then made by using amyloid beta 42 (Aβ42) mouse ELISA kit."}}, "note": "Entries after “also recorded” stand apart in the source; their conditions may differ.", "data": [{"smiles": "NC(=O)CC[C@H](N)C(=O)O", "note": "[glutamine]", "values": [{"measurement": "width of CA1-SP (stratum pyramidale CA1)", "setting": "[1]", "result": "restored"}, {"measurement": "cognitive ability (ORT) change caused by glutamine diet", "setting": "[2]", "result": "no change"}, {"measurement": "expression amount of p67phox", "setting": "p67phox", "result": "statistically significant decrement"}, {"measurement": "Aβ42 in NDE (neuronally derived blood exosome)", "setting": "amyloid beta 42 (Aβ42)", "result": "statistically significant decrease; also recorded: suppressed"}]}]}
